Reference: the NIST ThermoML archive (doi:10.1021/je400159e)
± gives the expanded uncertainty stated by the source.

Columns and labels:
[1] = Crystal; Adiabatic calorimetry
[2] = Molar enthalpy of transition or fusion; settings: Crystal; Adiabatic calorimetry
[3] = molar heat capacity at constant pressure; settings: 101.33 kPa, Vacuum adiabatic calorimetry

CCOC(=O)C(NC(C)=O)C(=O)OCC [diethyl 2-acetamidomalonate]
Settings | Molar enthalpy of transition or fusion [kcal/mol] | Triple point temperature [K]
[1] | – | 368.72 ± 0.2
[2] | 8.198 ± 0.0478 | –

[3]
Settings | molar heat capacity at constant pressure [J/K/mol]
78.24 K, Crystal | 110.9 ± 0.7
80 K, Crystal | 117.6 ± 0.7
80.92 K, Crystal | 118.8 ± 0.7
84.07 K, Crystal | 125.4 ± 0.8
85 K, Crystal | 125.6 ± 0.8
87.1 K, Crystal | 128.6 ± 0.8
90 K, Crystal | 132.8 ± 0.8
90.03 K, Crystal | 132.3 ± 0.8
92.96 K, Crystal | 137.3 ± 0.9
95 K, Crystal | 139.4 ± 0.9
95.86 K, Crystal | 140.8 ± 0.9
98.72 K, Crystal | 143.3 ± 0.9
100 K, Crystal | 145.5 ± 0.9
102.57 K, Crystal | 147.5 ± 0.9
105 K, Crystal | 151 ± 0.9
106.44 K, Crystal | 151.4 ± 0.9
109.33 K, Crystal | 154.8 ± 1
110 K, Crystal | 156.2 ± 1
112.24 K, Crystal | 157.6 ± 1
115 K, Crystal | 161 ± 1
115.17 K, Crystal | 161.2 ± 1
118.1 K, Crystal | 164.5 ± 1
120 K, Crystal | 165.6 ± 1
121.02 K, Crystal | 167.2 ± 1
123.94 K, Crystal | 169.6 ± 1.1
125 K, Crystal | 170 ± 1.1
126.84 K, Crystal | 172.1 ± 1.1
129.74 K, Crystal | 174.4 ± 1.1
130 K, Crystal | 174.2 ± 1.1
132.64 K, Crystal | 176.4 ± 1.1
135 K, Crystal | 178.3 ± 1.1
135.54 K, Crystal | 179.1 ± 1.1
138.43 K, Crystal | 181.8 ± 1.1
140 K, Crystal | 182.4 ± 1.1
141.33 K, Crystal | 184 ± 1.1
144.22 K, Crystal | 186.7 ± 1.2
145 K, Crystal | 186.3 ± 1.2
147.11 K, Crystal | 188.2 ± 1.2
149.99 K, Crystal | 190.2 ± 1.2
150 K, Crystal | 190.2 ± 1.2
153.39 K, Crystal | 192.9 ± 1.2
155 K, Crystal | 194.1 ± 1.2
157.07 K, Crystal | 195.6 ± 1.2
160 K, Crystal | 197.9 ± 1.2
160.22 K, Crystal | 198.3 ± 1.2
163.12 K, Crystal | 200.2 ± 1.2
165 K, Crystal | 201.8 ± 1.2
166.04 K, Crystal | 202.4 ± 1.2
168.95 K, Crystal | 204.2 ± 1.3
170 K, Crystal | 205.6 ± 1.3
171.83 K, Crystal | 206.6 ± 1.3
174.74 K, Crystal | 208.8 ± 1.3
175 K, Crystal | 209.5 ± 1.3
177.68 K, Crystal | 211 ± 1.3
180 K, Crystal | 213.4 ± 1.3
180.6 K, Crystal | 213.6 ± 1.3
183.5 K, Crystal | 216.3 ± 1.3
185 K, Crystal | 217.3 ± 1.3
186.43 K, Crystal | 218.3 ± 1.3
189.39 K, Crystal | 219.7 ± 1.4
190 K, Crystal | 221.2 ± 1.4
192.32 K, Crystal | 222.4 ± 1.4
195 K, Crystal | 225.1 ± 1.4
195.24 K, Crystal | 225 ± 1.4
198.14 K, Crystal | 227.4 ± 1.4
200 K, Crystal | 229 ± 1.4
201.06 K, Crystal | 229.4 ± 1.4
204.69 K, Crystal | 233 ± 1.4
205 K, Crystal | 232.9 ± 1.4
208.24 K, Crystal | 235.4 ± 1.4
210 K, Crystal | 236.8 ± 1.5
211.12 K, Crystal | 237.9 ± 1.5
214.07 K, Crystal | 239.9 ± 1.5
215 K, Crystal | 240.8 ± 1.5
216.99 K, Crystal | 243.1 ± 1.5
219.9 K, Crystal | 244 ± 1.5
220 K, Crystal | 244.7 ± 1.5
222.8 K, Crystal | 246.7 ± 1.5
225 K, Crystal | 248.7 ± 1.5
225.75 K, Crystal | 249.4 ± 1.5
228.73 K, Crystal | 251.2 ± 1.5
230 K, Crystal | 252.7 ± 1.6
231.68 K, Crystal | 254.7 ± 1.6
234.64 K, Crystal | 256.9 ± 1.6
235 K, Crystal | 256.7 ± 1.6
237.58 K, Crystal | 259.4 ± 1.6
240 K, Crystal | 260.7 ± 1.6
240.49 K, Crystal | 260.9 ± 1.6
244 K, Crystal | 264.3 ± 1.6
245 K, Crystal | 264.8 ± 1.6
247.5 K, Crystal | 267.7 ± 1.6
250 K, Crystal | 268.8 ± 1.6
250.46 K, Crystal | 269.6 ± 1.7
253.49 K, Crystal | 272.7 ± 1.7
255 K, Crystal | 273 ± 1.7
256.52 K, Crystal | 275 ± 1.7
259.52 K, Crystal | 277.5 ± 1.7
260 K, Crystal | 277.2 ± 1.7
262.52 K, Crystal | 280.1 ± 1.7
265 K, Crystal | 281.4 ± 1.7
265.5 K, Crystal | 282.4 ± 1.7
268.47 K, Crystal | 283.8 ± 1.7
270 K, Crystal | 285.7 ± 1.7
271.42 K, Crystal | 286.1 ± 1.8
274.37 K, Crystal | 289.5 ± 1.8
275 K, Crystal | 290.2 ± 1.8
277.31 K, Crystal | 290.7 ± 1.8
280 K, Crystal | 294.7 ± 1.8
280.26 K, Crystal | 293.6 ± 1.8
283.28 K, Crystal | 297.4 ± 1.8
285 K, Crystal | 299.3 ± 1.8
286.35 K, Crystal | 300.4 ± 1.8
289.39 K, Crystal | 302.9 ± 1.9
290 K, Crystal | 304.1 ± 1.9
292.4 K, Crystal | 306.6 ± 1.9
295 K, Crystal | 309 ± 1.9
295.4 K, Crystal | 308.5 ± 1.9
298.15 K, Crystal | 312.2 ± 1.9
298.4 K, Crystal | 312 ± 1.9
300 K, Crystal | 314.1 ± 1.9
301.4 K, Crystal | 314.7 ± 1.9
304.39 K, Crystal | 318.4 ± 1.9
305 K, Crystal | 319.3 ± 2
307.37 K, Crystal | 321.4 ± 2
310 K, Crystal | 324.7 ± 2
310.35 K, Crystal | 325.7 ± 2
313.32 K, Crystal | 329.7 ± 2
315 K, Crystal | 330.4 ± 2
316.34 K, Crystal | 332.9 ± 2
319.44 K, Crystal | 336.2 ± 2.1
320 K, Crystal | 336.2 ± 2.1
322.53 K, Crystal | 340.6 ± 2.1
325 K, Crystal | 342.2 ± 2.1
325.61 K, Crystal | 343 ± 2.1
328.68 K, Crystal | 346.8 ± 2.1
330 K, Crystal | 348.5 ± 2.1
331.74 K, Crystal | 350.7 ± 2.1
334.79 K, Crystal | 354.3 ± 2.2
335 K, Crystal | 355 ± 2.2
337.83 K, Crystal | 358 ± 2.2
340 K, Crystal | 361.7 ± 2.2
340.85 K, Crystal | 362.6 ± 2.2
343.87 K, Crystal | 367.1 ± 2.2
345 K, Crystal | 368.6 ± 2.2
372.62 K, Liquid | 463.3 ± 2.8
375 K, Liquid | 465 ± 2.8
375.92 K, Liquid | 465.4 ± 2.8
379.02 K, Liquid | 467.3 ± 2.8
380 K, Liquid | 467.7 ± 2.8
382.13 K, Liquid | 468.9 ± 2.9
385 K, Liquid | 470.4 ± 2.9
385.23 K, Liquid | 470.4 ± 2.9
388.37 K, Liquid | 472.1 ± 2.9
390 K, Liquid | 472.9 ± 2.9
391.51 K, Liquid | 473.6 ± 2.9
394.65 K, Liquid | 475.2 ± 2.9
395 K, Liquid | 475.3 ± 2.9
